Data published in US11058686B2, “5-(pyrimidin-4-yl)-2-(pyrrolidin-1-yl)nicotinonitrile compounds as IKKE, TBK1 and/or SIK2 kinases inhibitors” (DOMAINEX LIMITED, priority 2017, dated 2021).
pIC50: −log10 of the molar value. Like-named read-outs stand apart in the source and are kept apart here.

Key:
IKKε = target: T1, IKKε (Homo sapiens, UniProt Q14164); experiment: IKKε enzyme potency, time-resolved fluorescence Lanthascreen kinase assay; format: biochemical; conditions: IC50 at apparent Km for ATP (20 μM), 1 h reaction; read-out: Inhibition of IKKε
T1 sequence (Q14164 1-716): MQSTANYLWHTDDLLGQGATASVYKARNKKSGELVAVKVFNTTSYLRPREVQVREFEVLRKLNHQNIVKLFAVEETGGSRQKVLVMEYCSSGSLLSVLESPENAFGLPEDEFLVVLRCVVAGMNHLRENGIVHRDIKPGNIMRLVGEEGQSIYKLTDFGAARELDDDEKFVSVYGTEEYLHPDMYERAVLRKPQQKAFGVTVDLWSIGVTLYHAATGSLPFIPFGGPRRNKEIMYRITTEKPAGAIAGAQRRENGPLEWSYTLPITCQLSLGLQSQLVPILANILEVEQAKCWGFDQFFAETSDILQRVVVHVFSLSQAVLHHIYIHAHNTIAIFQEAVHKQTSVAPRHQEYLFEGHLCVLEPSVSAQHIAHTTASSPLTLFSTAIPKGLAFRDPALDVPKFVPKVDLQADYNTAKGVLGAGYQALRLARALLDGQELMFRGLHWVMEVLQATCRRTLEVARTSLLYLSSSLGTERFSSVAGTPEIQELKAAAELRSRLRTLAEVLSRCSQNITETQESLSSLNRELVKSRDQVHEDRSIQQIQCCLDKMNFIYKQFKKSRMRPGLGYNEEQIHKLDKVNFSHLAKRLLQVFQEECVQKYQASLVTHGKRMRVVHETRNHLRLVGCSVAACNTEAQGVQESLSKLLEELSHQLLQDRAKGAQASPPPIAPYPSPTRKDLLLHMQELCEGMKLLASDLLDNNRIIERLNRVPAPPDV
Description: (§1) Compounds of the invention (synthesised as described above), and Comparative Examples 1 to 5 (which may be synthesised as described in WO 2014/128486), were tested for potency against the IKKε and TBK1 enzyme as follows:
(§2) Inhibition studies were performed using a time-resolved fluorescence-based Lanthascreen™ assay. Phosphorylation of a fluorescein-labelled substrate peptide is measured using terbium-labeled phosphospecific antibodies. Terbium is excited at 340 nm and the FRET energy transfer to fluorescein is measured at 495 and 520 nm. The emission ratio between 520 and 495 is a measure of the level of phosphorylation of the substrate by the kinase.
(§3) Kinase inhibition assays (5 μL) were performed at 20° C. in 384-well plate format. Compound IC50 values were determined at the apparent Km for ATP (20 μM) based on a […] assay (Invitrogen) using 8 or 10 point curves in duplicate. The final reaction conditions contained 380 nM fluorescein-IkBα substrate (DRHDSGLDSMKDE) [SEQ ID No 1], 20 μM ATP, 0.9-3 nM IKKε or or 6-8 nM TBK1 kinase respectively, and 1% DMSO in kinase assay buffer consisting of 50 mM HEPES (pH 7.5), 10 mM MgCl2, 1 mM EGTA, 0.05% Brij-35.
(§4) Compound dilutions were prepared from 10 mM DMSO stocks by dilution into DMSO. Compound dilution series were further diluted in kinase assay buffer to give a 5% DMSO stock, the final concentration in the assay being 1% DMSO.
(§5) The kinase phosphorylation assay was initiated by the addition of the kinase and the reaction was allowed to proceed for 1 h or 2.5 h for IKKε and TBK1 kinase respectively. Both conditions were within the linearity of the phosphorylation. The reaction was stopped by the addition of 10 mM EDTA, and phosphorylation was detected after a 1 hour incubation with 1.5 nM terbium-labelled antibody against phosphorylation at Serine 32 on the IkBα peptide, both in TR-FRET dilution buffer (Invitrogen).

TBK1 = target: T2, TBK1 (Homo sapiens, UniProt Q9UHD2); experiment: TBK1 enzyme potency, time-resolved fluorescence Lanthascreen kinase assay; format: biochemical; conditions: IC50 at apparent Km for ATP (20 μM), 2.5 h reaction; read-out: Inhibition of TBK1
T2 sequence (Q9UHD2 1-729): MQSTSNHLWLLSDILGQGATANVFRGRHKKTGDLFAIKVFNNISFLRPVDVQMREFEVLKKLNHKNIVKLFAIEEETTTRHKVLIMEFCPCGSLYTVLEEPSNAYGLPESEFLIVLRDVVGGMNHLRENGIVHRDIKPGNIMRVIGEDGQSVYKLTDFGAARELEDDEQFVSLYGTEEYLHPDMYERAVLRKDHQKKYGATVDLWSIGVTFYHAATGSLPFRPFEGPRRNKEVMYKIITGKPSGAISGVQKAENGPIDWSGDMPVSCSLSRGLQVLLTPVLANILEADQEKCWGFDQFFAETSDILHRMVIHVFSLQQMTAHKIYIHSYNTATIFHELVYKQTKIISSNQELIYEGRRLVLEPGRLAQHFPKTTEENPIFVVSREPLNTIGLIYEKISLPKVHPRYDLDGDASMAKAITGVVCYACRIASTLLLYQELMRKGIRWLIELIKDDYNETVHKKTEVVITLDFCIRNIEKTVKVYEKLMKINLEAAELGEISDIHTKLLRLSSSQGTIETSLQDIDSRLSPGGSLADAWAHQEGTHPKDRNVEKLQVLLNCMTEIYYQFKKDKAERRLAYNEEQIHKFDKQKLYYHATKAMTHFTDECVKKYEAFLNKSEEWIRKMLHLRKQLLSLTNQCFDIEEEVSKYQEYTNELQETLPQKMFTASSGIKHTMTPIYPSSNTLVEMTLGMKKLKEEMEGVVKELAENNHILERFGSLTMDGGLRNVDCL
Description: as §1, §2, §3, §4, §5

[1] = Pharmacokinetic evaluation in female Balb-C mice after intravenous administration; format: in vivo; conditions: for Vd: Vd at steady state; for t½ / half-life: terminal half life in plasma (estimated); for half-life: read-out: t½ (converted)
Description: Pharmacokinetic evaluation was performed in female Balb-C mice. For intravenous administration (IV) compounds were typically dosed at 0.5 mg/Kg in a dose volume of 5 mL/Kg via the tail vein. Compounds were typically dosed in a vehicle of 5% DMSO/95% (Kelptose 20% w/v in phosphate buffered saline (PBS) pH 7.4). Other dosing vehicles known to those skilled in the art can also be used.
Blood samples were taken by cardiac puncture under terminal anaesthesia (isoflurane) at 8 time points between 1 minute and 10 hours following IV administration, typically 1 min, 5 min, 15 min, 30 min, 1 h, 3 h, 6 h and 10 h post dosing. In some instances 2 h, 4 h and 8 h were used for the final 3 time points due to greater convenience. N=3 animals were used per time point. Plasma was immediately obtained by centrifugation, and the resulting samples frozen until analysis. Samples, along with a calibration curve prepared by spiking the compounds into control plasma, were subsequently prepared for quantitative analysis by precipitation of the plasma proteins with acetonitrile. Analysis was by ultra-high performance liquid chromatography (Agilent 1290 system) coupled to time-of-flight mass spectrometry, using electrospray ionisation (Agilent 6550 system). Pharmacokinetic parameters were determined by non-compartmental analysis of mean concentration data using Phoenix WinNonlin v6.4
The volume of distribution (Vd) is the theoretical volume into which a drug appears to be distributed assuming it is present at the same concentration everywhere as it is in plasma.
The Vd at steady state (Vdss) is calculated by multiplying the clearance (Cl) by the mean residence time (MRT). Clearance is measured by dividing the dose by the Area under the concentration time curve. Cl=Dose/AUC0-∞ Vdss=Cl×MRT
The mean residence time is calculated by dividing the area under the second moment curve (AUMC) by the area under the concentration time curve (AUC). The second moment curve can be generated by plotting […] MRT=AUMC/AUC (ii) t1/2 in Mice (Estimated)
The compound half life (t1/2) is the time for the concentration of the drug to halve in the plasma. The terminal half life was typically estimated from the gradient of a log concentration/time plot using the last 3 points. Both the Cl and the Vd contribute to the observed half life. A larger Vd and smaller Cl gives a longer t1/2.

[2] = Human hepatocyte (liver cell) stability; format: in vitro ADME; conditions: intrinsic clearance, cryopreserved pooled human hepatocytes, 3 μM compound, 0-60 min; for Human hepatocyte stability (μL/min/10^6 cells): Table 4; for Human Heps (μL/min/10^6 cells): Table 5, comparative examples
Description: Commercially available cryopreserved pooled human hepatocytes were purchased and stored in liquid nitrogen prior to use. Williams E media supplemented with 2 mM L-glutamine and 25 mM HEPES and the appropriate test compound (final substrate concentration 3 μM; final DMSO concentration 0.25%) were pre-incubated at 37° C. prior to the addition of a suspension of cryopreserved human hepatocytes (final cell density 0.5×10^6 viable cells/mL in Williams E media supplemented with 2 mM L-glutamine and 25 mM HEPES) to initiate the reaction. The final incubation volume is 500 μL. Two control compounds were included in each test alongside the vehicle control, typically verapamil and umbelliferone.
The reactions were stopped after 0 min, 5 min, 20 min, 40 min and 60 min by transferring 50 μL of the incubate to 100 μL methanol containing an internal standard. The termination plates were subsequently centrifuged at 2500 rpm at 4° C. to precipitate the protein. Following protein precipitation the sample supernatants are combined in cassettes of up to 4 compounds and analysed by LC-MS/MS conditions.
The In peak area ratio (compound peak area/internal standard peak area) was plotted against time and the gradient of the line determined. Elimination rate constant (k)=−(gradient) Half life(t1/2)(min)=0.693/k V(μL/10^6 cells)=Incubation volume (μL)/number of cells in incubation (×10^6) Intrinsic Clearance(Clint)(μL/min/million cells)=V×0.693/t1/2
If the two control compounds are not within historical specified limits then the results are rejected and the experiment repeated.

SIK2 = target: T3, SIK2 (Homo sapiens, UniProt Q9H0K1); experiment: SIK2 radiolabelled 33P-ATP Kinase HotSpot assay (Reaction Biology Corporation); format: biochemical; conditions: IC50 at apparent Km for ATP (30 μM), 20 μM peptide substrate; read-out: Inhibition of SIK2
T3 construct: purchased Reaction Biology Corporation
Description: SIK2 was measured using radiolabelled ^33P-ATP using the Kinase HotSpot℠ technology of Reaction Biology Corporation. The peptide AMARAASAALAARRR [SEQ ID No 2] at a concentration of 20 μM was used as the substrate. IC50 values were determined at the apparent Km for ATP (30 μM)

[3] = Table 2, IV typically 0.5 mg/Kg
[4] = Table 3, comparative examples, IV typically 0.5 mg/Kg
[5] = mouse, Table 3, comparative examples, IV typically 0.5 mg/Kg
[6] = mouse, plasma, Table 3, comparative examples, IV typically 0.5 mg/Kg, read-out: Vd

T3 sequence (Q9H0K1 whole entry): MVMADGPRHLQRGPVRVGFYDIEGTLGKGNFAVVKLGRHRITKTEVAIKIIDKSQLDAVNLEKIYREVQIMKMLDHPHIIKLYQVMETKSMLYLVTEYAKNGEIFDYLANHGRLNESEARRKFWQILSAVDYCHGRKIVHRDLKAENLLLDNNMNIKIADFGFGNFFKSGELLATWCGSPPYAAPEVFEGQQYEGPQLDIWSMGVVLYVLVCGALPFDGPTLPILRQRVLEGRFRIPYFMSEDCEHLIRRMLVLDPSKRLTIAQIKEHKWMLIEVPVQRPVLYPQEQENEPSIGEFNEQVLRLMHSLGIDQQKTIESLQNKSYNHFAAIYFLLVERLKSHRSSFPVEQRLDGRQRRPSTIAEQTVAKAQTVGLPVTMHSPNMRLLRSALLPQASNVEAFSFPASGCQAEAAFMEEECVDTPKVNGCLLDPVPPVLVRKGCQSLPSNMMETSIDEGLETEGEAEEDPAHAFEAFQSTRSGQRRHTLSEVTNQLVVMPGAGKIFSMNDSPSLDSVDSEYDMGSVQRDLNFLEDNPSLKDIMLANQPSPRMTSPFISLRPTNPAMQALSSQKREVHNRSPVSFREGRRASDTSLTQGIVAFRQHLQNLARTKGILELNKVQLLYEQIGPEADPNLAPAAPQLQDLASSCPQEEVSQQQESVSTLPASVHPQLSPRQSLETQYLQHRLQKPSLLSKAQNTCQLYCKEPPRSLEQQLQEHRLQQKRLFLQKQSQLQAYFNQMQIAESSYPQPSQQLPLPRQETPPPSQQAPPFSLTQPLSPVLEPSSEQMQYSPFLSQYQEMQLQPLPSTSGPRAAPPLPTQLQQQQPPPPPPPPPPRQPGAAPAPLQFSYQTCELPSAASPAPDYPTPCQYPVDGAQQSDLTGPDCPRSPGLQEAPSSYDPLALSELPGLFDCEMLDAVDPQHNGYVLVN

pIC50 (IKKε) | pIC50 (TBK1) | Vd [1, 3] [L/kg] | t½ [1, 3] [min] | Human hepatocyte stability (μL/min/10^6 cells) [2] [μL/min/10^6 cells] | half-life [1, 5] [min] | Human Heps (μL/min/10^6 cells) [2] [μL/min/10^6 cells] | SMILES | further results
7.62 | 7.77 | 4.6 | 144 | 7 | – | – | CN1CCN(Cc2ccc(Nc3nccc(-c4cnc(N5CC[C@H](F)C5)c(C#N)c4)n3)cn2)CC1 [Ex. No. 3, 2-((S)-3-Fluoro-pyrrolidin-1-yl)-5-{2-[6-(4-methyl-piperazin-1-ylmethyl)-pyridin-3-ylamino]-pyrimidin-4-yl}-nicotinonitrile] | –
– | – | – | – | – | 30 | 6 | N#Cc1cc(-c2ccnc(Nc3ccc(NC(=O)CN4CCOCC4)nc3)n2)cnc1N1CC[C@H](F)C1 [Comp. Ex. 4] | Vd [1, 4]: 0.54 L/kg
– | – | – | – | – | – | 48 | CN1CCN(c2ccc(Nc3nccc(-c4cnc(N5CC[C@H](F)C5)c(C#N)c4)n3)cn2)CC1 [Comp. Ex. 3] | –
– | – | – | – | – | – | ≤6 | N#Cc1cc(-c2ccnc(Nc3ccc(CN4CCNC(=O)C4)nc3)n2)cnc1N1CC[C@H](F)C1 [Comp. Ex. 2] | Vd [1, 4]: 0.74 L/kg; t½ [1, 4]: 40.8 min
7.68 | 7.70 | 5.6 | 132 | 8 | – | – | CCN1CCN(Cc2ccc(Nc3nccc(-c4cnc(N5CC[C@@H](F)C5)c(C#N)c4)n3)cn2)CC1 [Ex. No. 2, 5-{2-[6-(4-Ethyl-piperazin-1-ylmethyl)-pyridin-3-ylamino]-pyrimidin-4-yl}-2-((R)-3-fluoro-pyrrolidin-1-yl)-nicotinonitrile] | –
– | – | – | – | – | 42 | 6 | N#Cc1cc(-c2ccnc(Nc3ccnc(NC(=O)CN4CCOCC4)c3)n2)cnc1N1CC[C@H](F)C1 [Comp. Ex. 5] | Vd [1, 6]: 0.7 L/kg
7.80 | 8.05 | 3.3 | 102 | 11 | – | – | CCN1CCN(Cc2ccc(Nc3nccc(-c4cnc(N5CC[C@H](F)C5)c(C#N)c4)n3)cn2)CC1 [Ex. No. 1, 5-{2-[6-(4-Ethyl-piperazin-1-ylmethyl)-pyridin-3-ylamino]-pyrimidin-4-yl}-2-((S)-3-fluoro-pyrrolidin-1-yl)-nicotinonitrile] | pIC50 (SIK2): 8.15
– | – | – | – | – | 30 | 13 | N#Cc1cc(-c2ccnc(Nc3ccc(CN4CCOCC4)nc3)n2)cnc1N1CC[C@H](F)C1 [Comp. Ex. 1] | Vd [1, 6]: 0.3 L/kg
